Source: patent US20250295679A1, “Compositions and Dosage Forms for Treatment of HPV Infection and HPV-Induced Neoplasia” (priority 2022, published 2025)
Like-named read-outs stand apart in the source and are kept apart here.

How the values were obtained:
[1] = Hygroscopicity by DVS at 25° C.; format: physicochemical; settings: for Desorption (%) Cycle 1 / Desorption (%) Cycle 2 / Sorption (%) Cycle 1 / Sorption (%) Cycle 2 / Water uptake / Desorp. (%) Cycle 1 / Desorp. (%) Cycle 2 / Sorp. (%) Cycle 1 / Sorp. (%) Cycle 2: DVS 25° C.; for XRPD after DVS test: 25° C.; for Water uptake: up to / in 95% RH
Protocol: Hygroscopicity was investigated by DVS at 25° C., using the following method: • Method: 40-0-95-0-40% RH, dm/dt=0.002

[2] = Solubility in buffers, water and simulated vaginal fluid at 37° C.
Protocol: About 4 mg of Compound I Pattern 1 was added into 2 mL of buffer solution.
(§1) Solubility was tested in five media, pH 3.0 citrate buffer, pH 4.5 acetate buffer, pH 6.8 phosphate buffer, water, simulated vaginal fluid (pH 4.2) at 37° C. for 0.5 h and 2 h.
The salt amount used is equivalent to 10 mg anhydrous free base. […] The obtained clear solutions were analyzed by pH meter for pH, and solubility was determined by observation.
as §1

[3] = Bulk (accelerated) stability, one week, HPLC and XRPD; settings: for HPLC purity, Initial: initial chemical purity before storage; for Bulk (HPLC) Purity / Bulk Color: 1 week
Protocol: Bulk stability: Accelerated stability experiments were conducted at 25° C./92% RH and 40° C./75% RH in an open container, 60° C. in a tight container for one week.
Samples were characterized by XRPD and HPLC and inspected for color change.
Accelerated stability experiments were conducted at 25° C./92% RH in an open container, at 40° C./75% RH in an open container, and at 60° C. in a tight container for one week.

[4] = Ex vivo permeation and penetration across porcine vaginal tissue (Franz diffusion cell, IVPT); format: in vitro ADME; parameters: Concentration in vaginal tissue: unit not given here; settings: for Tissue penetration: porcine vaginal tissue, 0.1% Compound II gel, 1% and 3% ABI-1968 formulations
Description: FIG. 116 is an in vitro tissue permeation test in vaginal tissue comparing Compound II to ABI-1968. […] Bars B and C show the tissue penetration of a 0.1% Compound II gel in human cervical tissue. […] This may be a contributing factor to the performance of ABI-1968 in clinical studies. […] This is described in Example 41.
Freshly harvested porcine vaginal tissue was procured from local slaughterhouse in an ice box. The vaginal tissue was cut open to expose the mucosal surface and tissue was cleaned by gentle flow of PBS pH 7.4. The porcine vaginal tissue was cut into circular portions (approximately 2 cm^2) with help of a […] punch.
The circular portion of tissue was sandwiched between two chambers of a Franz diffusion cell with an active diffusion area of 1 cm^2, and the mucosal layer was exposed to the donor chambers. The resistance across porcine vaginal tissue was measured using a wave form generator to ensure the integrity of the tissue segment used for the permeation study. Porcine vaginal tissue with resistance of ≥3 KΩ·cm^2 was used for study. The receiver chamber was filled with 8 ml of 5% solutol PBS 7.4 pH, which was stirred at 600 rpm with a 3 mm magnetic stir bar and the temperature was maintained at 37° C. with a circulating water bath.
The ˜200 mg of gel was filled into tared 1 mL syringe and gel was dispensed to donor chamber. The gel was spread on to mucosal surface with pre weighed applicator. After loading and spreading of the gel onto surface of mucosal surface, the weight of 1 mL syringe and applicator was noted to determine the exact amount of gel loaded into donor chamber.
Time course (2 h, 4 h and 8 h) porcine vaginal permeation studies were performed. After loading gel, 500 μL samples were withdrawn from the receiver compartment at different time intervals and each time an equal volume of fresh receiver media was used to replace withdrawn samples. The sample withdrawn at each time interval were stored immediately in −20° C. until analysis. After 2, 4 and 8 h, the formulation was removed from the donor chamber with help of syringe and cleaned with cotton swab. The tissue was removed and washed gently with wash solution (50% methanol in water) 5 times and alternatively cleaning with cotton swab.
An 8 mm punch of active diffusion area of washed porcine vaginal tissue was removed, weighed and transferred into a tube. This tube was immediately placed into dry ice for ˜15 min. After specified time, tissue was removed and placed in precooled dish. The tissue was minced into smaller pieces on a dish with a precooled surgical blade. The minced tissue was transferred to sample tubes and dish was rinsed with 1 ml of 5% solutol in PBS 7.4 pH and transferred to same tissue sample tube. These tubes were stored in −70° C. until analysis. […]

[5] = Polymorph screening by equilibration in solvents; format: physicochemical
[6] = 25° C., 92% RH, open container, one week
[7] = BS1: solid state, 25° C./92% RH, open container
[8] = BS2: solid state, 40° C./75% RH, open container
[9] = BS3: solid state, 60° C., tight container

Structure (SMILES): CCOC(=O)C(C)NP(=O)(COCCn1cnc2c(OC)nc(N)nc21)OCc1ccccc1.CCOC(=O)C(C)NP(=O)(COCCn1cnc2c(OC)nc(N)nc21)OCc1ccccc1.O=C(O)C=CC(=O)O (mixture of isomers) [Compound I hemifumarate]
- Desorption (%) Cycle 1 ([1]; 0% RH): 0.13%
- Desorption (%) Cycle 2 ([1]; 0% RH): 0.00%
- Sorption (%) Cycle 1 ([1]; 0% RH): 0.13%
- Sorption (%) Cycle 2 ([1]; 0% RH): 0.00%
- Desorption (%) Cycle 1 ([1]; 10% RH): 0.36%
- Desorption (%) Cycle 2 ([1]; 10% RH): 0.23%
- Sorption (%) Cycle 1 ([1]; 10% RH): 0.34%
- Sorption (%) Cycle 2 ([1]; 10% RH): 0.20%
- Desorption (%) Cycle 1 ([1]; 20% RH): 0.56%
- Desorption (%) Cycle 2 ([1]; 20% RH): 0.44%
- Sorption (%) Cycle 1 ([1]; 20% RH): 0.53%
- Sorption (%) Cycle 2 ([1]; 20% RH): 0.40%
- Desorption (%) Cycle 1 ([1]; 30% RH): 0.79%
- Desorption (%) Cycle 2 ([1]; 30% RH): 0.68%
- Sorption (%) Cycle 1 ([1]; 30% RH): 0.73%
- Sorption (%) Cycle 2 ([1]; 30% RH): 0.61%
- Desorption (%) Cycle 1 ([1]; 40% RH): 1.04%
- Desorption (%) Cycle 2 ([1]; 40% RH): 0.94%
- Sorption (%) Cycle 1 ([1]; 40% RH): 0.96%
- Sorption (%) Cycle 2 ([1]; 40% RH): 0.87%
- Desorption (%) Cycle 2 ([1]; 50% RH): 1.26%
- Sorption (%) Cycle 1 ([1]; 50% RH): 1.22%
- Desorption (%) Cycle 2 ([1]; 60% RH): 1.68%
- Sorption (%) Cycle 1 ([1]; 60% RH): 1.57%
- Desorption (%) Cycle 2 ([1]; 70% RH): 2.25%
- Sorption (%) Cycle 1 ([1]; 70% RH): 2.04%
- Desorption (%) Cycle 2 ([1]; 80% RH): 3.14%
- Sorption (%) Cycle 1 ([1]; 80% RH): 2.80%
- Desorption (%) Cycle 2 ([1]; 90% RH): 4.84%
- Sorption (%) Cycle 1 ([1]; 90% RH): 4.54%
- Desorption (%) Cycle 2 ([1]; 95% RH): 6.87%
- Sorption (%) Cycle 1 ([1]; 95% RH): 6.87%
- XRPD after DVS test ([1]; after humidity cycle 40-0-95-0-40% RH): No form change,
- Water uptake [1]: ~6.9%
- Solubility 0.5 hrs [2]: >2000 µg/mL
- Solubility 2 hrs [2]: >2000 µg/mL
- Solubility 0.5 hrs ([2]; pH 3): >2000 µg/mL
- Solubility 2 hrs ([2]; pH 3): >2000 µg/mL
- Solubility 0.5 hrs ([2]; pH 4.2): >2000 µg/mL
- Solubility 2 hrs ([2]; pH 4.2): >2000 µg/mL
- Solubility 0.5 hrs ([2]; pH 4.5): >2000 µg/mL
- Solubility 2 hrs ([2]; pH 4.5): >2000 µg/mL
- Solubility 0.5 hrs ([2]; pH 6.8): >2000 µg/mL
- Solubility 2 hrs ([2]; pH 6.8): >2000 µg/mL
- pH at 2 hrs ([2]; solution in simulated vaginal fluid (pH adjusted with 0.2N NaOH), 37° C.): (5.30)
- HPLC purity after storage [3, 6]: 97.0%
- XRPD after storage [3, 6]: No change
- HPLC purity after storage ([3]; 40° C., 75% RH, open container, one week): 90.9%
- HPLC purity after storage ([3]; 60° C., tight container, one week): 82.3%
- HPLC purity, Initial ([3]; listed as Compound I Hemifumarate Pattern 1): 97.8%
- HPLC purity, Initial ([3]; listed as Compound I hemifumarate Pattern 1): 97.8%

Structure (SMILES): CCCCCCCCCCCCCCCCCCOCCOP(=O)(COCCn1cnc2c(=O)[nH]c(N)nc21)OCc1ccccc1 (centres unmarked) [ABI-1968]
- Concentration in vaginal tissue ([4]; 3% dose, FIG. 116): < 15
- Tissue penetration ([4]; FIG. 116): substantially smaller degree
- Tissue concentration ([4]; up to a 3% dose, Bar F and G in FIG. 116): < 15 ng/mg

Structure (SMILES): CCOC(=O)[C@H](C)N[P@@](=O)(COCCn1cnc2c(OC)nc(N)nc21)OCc1ccccc1.O=C(O)/C=C/C(=O)O [Compound II]
- Desorp. (%) Cycle 1 ([1]; 0% RH): 0.03%
- Desorp. (%) Cycle 2 ([1]; 0% RH): 0.03%
- Sorp. (%) Cycle 1 ([1]; 0% RH): 0.03%
- Sorp. (%) Cycle 2 ([1]; 0% RH): 0.03%
- Desorp. (%) Cycle 1 ([1]; 10% RH): 0.05%
- Desorp. (%) Cycle 2 ([1]; 10% RH): 0.05%
- Sorp. (%) Cycle 1 ([1]; 10% RH): 0.04%
- Sorp. (%) Cycle 2 ([1]; 10% RH): 0.04%
- Desorp. (%) Cycle 1 ([1]; 20% RH): 0.08%
- Desorp. (%) Cycle 2 ([1]; 20% RH): 0.07%
- Sorp. (%) Cycle 1 ([1]; 20% RH): 0.06%
- Sorp. (%) Cycle 2 ([1]; 20% RH): 0.06%
- Desorp. (%) Cycle 1 ([1]; 30% RH): 0.10%
- Desorp. (%) Cycle 2 ([1]; 30% RH): 0.08%
- Sorp. (%) Cycle 1 ([1]; 30% RH): 0.08%
- Sorp. (%) Cycle 2 ([1]; 30% RH): 0.07%
- Desorp. (%) Cycle 1 ([1]; 40% RH): 0.17%
- Desorp. (%) Cycle 2 ([1]; 40% RH): 0.10%
- Sorp. (%) Cycle 1 ([1]; 40% RH): 0.10%
- Sorp. (%) Cycle 2 ([1]; 40% RH): 0.09%
- Desorp. (%) Cycle 2 ([1]; 50% RH): 0.12%
- Sorp. (%) Cycle 1 ([1]; 50% RH): 0.12%
- Desorp. (%) Cycle 2 ([1]; 60% RH): 0.14%
- Sorp. (%) Cycle 1 ([1]; 60% RH): 0.13%
- Desorp. (%) Cycle 2 ([1]; 70% RH): 0.18%
- Sorp. (%) Cycle 1 ([1]; 70% RH): 0.16%
- Desorp. (%) Cycle 2 ([1]; 80% RH): 0.21%
- Sorp. (%) Cycle 1 ([1]; 80% RH): 0.19%
- Desorp. (%) Cycle 2 ([1]; 90% RH): 0.24%
- Sorp. (%) Cycle 1 ([1]; 90% RH): 0.23%
- Desorp. (%) Cycle 2 ([1]; 95% RH): 0.24%
- Sorp. (%) Cycle 1 ([1]; 95% RH): 0.24%
- Hygroscopicity ([1]; DVS at 25° C., in words): slightly hygroscopic
- XRPD after DVS test ([1]; after DVS 40-0-95-0-40% RH): No form change
- XRPD after DVS test ([1]; after humidity cycle 40-0-95-0-40% RH, listed as Compound II Pattern 1, monofumarate): No form change
- XRPD after DVS test ([1]; after humidity cycle 40-0-95-0-40% RH, monofumarate): does not change
- Water uptake [1]: about 0.2%
- pH of solution at 2 hours ([2]; ES1: pH 3.0, 100 mM citrate buffer, 37° C.): 2.85
- pH of solution at 2 hours ([2]; ES2: pH 4.5, 50 mM acetate buffer, 37° C.): 4.2
- pH of solution at 2 hours ([2]; ES3: pH 6.8, 50 mM phosphate buffer, 37° C.): 6.47
- pH of solution at 2 hours ([2]; ES4: Water, 37° C.): 2.87
- pH of solution at 2 hours ([2]; ES5: Simulated vaginal fluid (pH adjusted by 0.1N NaOH), 37° C.): 5.79
- Stability after exposure to the three conditions ([3]; 25° C./92% RH open, 40° C./75% RH open, 60° C. tight container, one week): good physical and chemical stability
- Bulk (HPLC) Purity [3, 7]: 99.5%
- Bulk Color [3, 7]: No change
- Bulk (HPLC) Purity [3, 8]: 99.4%
- Bulk Color [3, 8]: No change
- Bulk (HPLC) Purity [3, 9]: 99.7%
- Bulk Color [3, 9]: No change
- HPLC purity, Initial [3]: 99.7%
- Crystal modification after 1 week equilibration at 25° C. ([5]; PS1: IPA): Compound II Pattern 1
- Crystal modification after 1 week equilibration at 25° C. ([5]; PS2: Heptanes): Compound II Pattern 1
- Crystal modification after 1 week equilibration at 25° C. ([5]; PS3: Water): Compound II Pattern 1
- Crystal modification after 1 week equilibration at 25° C. ([5]; PS4: ACN): Compound II Pattern 2
- Crystal modification after 1 week equilibration at 25° C. ([5]; PS5: MEK): Compound II Pattern 3
- Crystal modification after 1 week equilibration at 25° C. ([5]; PS6: Acetone): Compound II Pattern 1
- Crystal modification after 1 week equilibration at 25° C. ([5]; PS7: IPA/heptanes (3/10, v/v)): Compound II Pattern 1
- Crystal modification after 1 week equilibration at 25° C. ([5]; PS8: water/ACN (2.9/97.1, v/v)): Compound II Pattern 2
- Crystal modification after 1 week equilibration at 25° C. ([5]; PS9: IPA/MTBE (1/3, v/v)): Compound II Pattern 1
- Crystal modification after 1 week equilibration at 25° C. ([5]; PS10: EA/toluene (1/3, v/v)): Compound II Pattern 1
- Dissociation of the salt during equilibration experiments ([5]; equilibration in solvents, 1 week, 25° C.): no dissociation was observed
- Tissue penetration ([4]; FIG. 116): high tissue penetration
